Data reported in patent US20240041042A1, “1-(PYRIDYL)-5-AZINYLPYRAZOLE DERIVATIVES, AND THEIR USE FOR CONTROL OF UNDESIRED PLANT GROWTH” (Bayer Aktiengesellschaft, priority 2020, published 2024).

Tests used:
Format in all cases: in vivo
[1] = system: Abutilon theophrasti (ABUTH); assay: Pre-emergence herbicidal action against ABUTH; conditions: Dosage column 320 g/ha (title prints 3200 g/ha); scored visually after about 3 weeks; 100% = plants have died
Description: Seeds of monocotyledonous and dicotyledonous weed plants and crop plants are placed in plastic or organic planting pots and covered with soil. The compounds of the invention, formulated in the form of wettable powders (WP) or as emulsion concentrates (EC), are then applied to the surface of the covering soil as aqueous suspension or emulsion with addition of 0.5% additive at a water application rate equivalent to 600 l/ha. After the treatment, the pots are placed in a greenhouse and kept under good growth conditions for the trial plants. After about 3 weeks, the effect of the preparations is scored visually in comparison with untreated controls as percentages. For example, 100% activity=the plants have died, 0% activity=like control plants.
Tables A1 to A13 below show the effects of selected compounds of the general formula (I) on various harmful plants and at an application rate corresponding to 320 g/ha or lower, which were obtained by the experimental procedure mentioned above. The appendices “a”, “b” and “c” give differentiation by dosage used with otherwise the same harmful plants tested.

[2] = system: Alopecurus myosuroides (ALOMY); assay: Pre-emergence herbicidal action against ALOMY; conditions: scored visually after about 3 weeks, 100% = plants have died
Method in brief: (§1)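 Pre-emergence soil-surface spray of compound, formulated as wettable powder or emulsion concentrate, in aqueous suspension or emulsion with 0.5% additive (600 l/ha; rate 320 g/ha or less). Activity rated visually after roughly 3 weeks in the greenhouse as a percentage of untreated controls, 0% meaning no difference.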

[3] = system: Amaranthus retroflexus (AMARE); assay: Pre-emergence herbicidal action against AMARE; conditions: visual scoring after about 3 weeks vs untreated controls
Method in brief: as §1

Avena fatua (AVEFA) [4] = assay: Pre-emergence herbicidal action against AVEFA; conditions: visual scoring after about 3 weeks vs untreated controls
Method in brief: as §1

[5] = system: Echinochloa crus-galli (ECHCG); assay: Pre-emergence herbicidal action against ECHCG
Method in brief: as §1

Lolium rigidum (LOLRI) [6] = assay: Pre-emergence herbicidal action against LOLRI
Method in brief: as §1

[7] = system: Matricaria inodora (MATIN); assay: Pre-emergence herbicidal action against MATIN; conditions: dosage 320 g/ha
Method in brief: as §1

[8] = system: Polygonum convolvulus (POLCO); assay: Pre-emergence herbicidal action against POLCO
Method in brief: as §1

Setaria viridis (SETVI) [9] = assay: Pre-emergence herbicidal action against SETVI
Method in brief: as §1

[10] = system: Verconica persica (VERPE); assay: Pre-emergence herbicidal action against VERPE; conditions: dosage 320 g/ha
Method in brief: as §1

Viola tricolor (VIOTR) [11] = assay: Pre-emergence herbicidal action against VIOTR
Method in brief: as §1

[12] = system: Abutilon theophrasti (ABUTH); assay: Post-emergence herbicidal action against ABUTH; conditions: visual rating about 3 weeks after treatment vs untreated controls (100% = plants have died, 0% = like control plants)
Method in brief: (§2)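 Greenhouse plants sprayed at the one-leaf stage, 2–3 weeks after sowing, with WP or EC formulations plus 0.5% additive at 600 l/ha water. Activity rated visually after about 3 weeks versus untreated controls (100% = dead, 0% = like control), at 320 g/ha or lower.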

[13] = system: Alopecurus myosuroides (ALOMY); assay: Post-emergence herbicidal action against ALOMY; conditions: visual rating about 3 weeks after treatment vs untreated controls (100% = plants have died, 0% = like control plants)
Method in brief: as §2

[14] = system: Amaranthus retroflexus (AMARE); assay: Post-emergence herbicidal action against AMARE
Method in brief: as §2

Avena fatua (AVEFA) [15] = assay: Post-emergence herbicidal action against AVEFA; conditions: visual rating about 3 weeks after treatment
Method in brief: as §2

[16] = system: Echinochloa crus-galli (ECHCG); assay: Post-emergence herbicidal action against ECHCG
Method in brief: as §2

Lolium rigidum (LOLRI) [17] = assay: Post-emergence herbicidal action against LOLRI
Method in brief: as §2

[18] = system: Pharbitis purpurea (PHBPU); assay: Post-emergence herbicidal action against PHBPU; conditions: dosage 320 g/ha
Method in brief: as §2

[19] = system: Polygonum convolvulus (POLCO); assay: Post-emergence herbicidal action against POLCO
Method in brief: as §2

Setaria viridis (SETVI) [20] = assay: Post-emergence herbicidal action against SETVI
Method in brief: as §2

[21] = system: Verconica persica (VERPE); assay: Post-emergence herbicidal action against VERPE
Method in brief: as §2

Viola tricolor (VIOTR) [22] = assay: Post-emergence herbicidal action against VIOTR
Method in brief: as §2

Oryza sativa (ORYSA) = conditions: crop plant compatibility, 80 g/ha, effect in comparison to untreated controls
Method in brief: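 Greenhouse crops in sandy loam sprayed post-emergence at the one-leaf stage, 2–3 weeks after sowing, with WP or EC formulations in water plus 0.5% additive at 600 l/ha. Damage rated visually about 3 weeks later versus untreated controls (0% = like control, 100% = dead); suffixes a–c denote different doses.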

[23] = 80 g/ha, visual rating about 3 weeks after treatment vs untreated controls (100% = plants have died, 0% = like control plants)
[24] = 320 g/ha, visual rating about 3 weeks after treatment

## COC(=O)CNC(=O)[C@@H](C)Oc1nn(-c2ccccn2)c(-c2ccc(F)nc2)c1Cl [Example I-339]
[1]
  Pre-emergence action against ABUTH: 90%
[2]; 80 g/ha
  Pre-emergence action against ALOMY: 100%
[2]; 320 g/ha
  Pre-emergence action against ALOMY: 100%
[3]; 80 g/ha
  Pre-emergence action against AMARE in %: 100%
[3]; 320 g/ha
  Pre-emergence action against AMARE in %: 100%
Avena fatua (AVEFA) [4]; 80 g/ha
  Pre-emergence action against AVEFA in %: 100%
Avena fatua (AVEFA) [4]; 320 g/ha
  Pre-emergence action against AVEFA in %: 100%
[5]; dosage 320 g/ha
  Pre-emergence action against ECHCG in %: 100%
Lolium rigidum (LOLRI) [6]; dosage 80 g/ha
  Pre-emergence action against LOLRI in %: 100%
Lolium rigidum (LOLRI) [6]; dosage 320 g/ha
  Pre-emergence action against LOLRI in %: 100%
[7]
  Pre-emergence action against MATIN in %: 100%
[8]; dosage 80 g/ha
  Pre-emergence action against POLCO in %: 90%
[8]; dosage 320 g/ha
  Pre-emergence action against POLCO in %: 100%
Setaria viridis (SETVI) [9]; dosage 80 g/ha
  Pre-emergence action against SETVI in %: 100%
Setaria viridis (SETVI) [9]; dosage 320 g/ha
  Pre-emergence action against SETVI in %: 100%
[10]
  Pre-emergence action against VERPE in %: 100%
Viola tricolor (VIOTR) [11]; 320 g/ha, Viola tricolor
  Pre-emergence action against VIOTR in %: 100%
Viola tricolor (VIOTR) [11]; dosage 80 g/ha
  Pre-emergence action against VIOTR in %: 100%
[12]; 80 g/ha
  Post-emergence action against ABUTH in %: 80%
[12]; 320 g/ha
  Post-emergence action against ABUTH in %: 90%
[13]; 80 g/ha
  Post-emergence action against ALOMY in %: 90%
[13]; 320 g/ha
  Post-emergence action against ALOMY in %: 100%
[14]; [23]
  Post-emergence action against AMARE in %: 90%
[14]; [24]
  Post-emergence action against AMARE in %: 90%
Avena fatua (AVEFA) [15]; 80 g/ha
  Post-emergence action against AVEFA in %: 90%
Avena fatua (AVEFA) [15]; 320 g/ha
  Post-emergence action against AVEFA in %: 90%
[16]; dosage 80 g/ha
  Post-emergence action against ECHCG in %: 90%
[16]; dosage 320 g/ha
  Post-emergence action against ECHCG in %: 90%
Lolium rigidum (LOLRI) [17]; dosage 80 g/ha
  Post-emergence action against LOLRI in %: 90%
Lolium rigidum (LOLRI) [17]; dosage 320 g/ha
  Post-emergence action against LOLRI in %: 90%
[18]
  Post-emergence action against PHBPU in %: 80%
[19]; dosage 80 g/ha
  Post-emergence action against POLCO in %: 90%
[19]; dosage 320 g/ha
  Post-emergence action against POLCO in %: 90%
Setaria viridis (SETVI) [20]; dosage 80 g/ha
  Post-emergence action against SETVI in %: 90%
Setaria viridis (SETVI) [20]; dosage 320 g/ha
  Post-emergence action against SETVI in %: 90%
[21]; 320 g/ha, VERPE
  Post-emergence action against VERPE in %: 90%
[21]; dosage 80 g/ha
  Post-emergence action against VERPE in %: 80%
Viola tricolor (VIOTR) [22]; 80 g/ha
  Post-emergence action against VIOTR in %: 90%
Viola tricolor (VIOTR) [22]; 320 g/ha
  Post-emergence action against VIOTR in %: 90%
Oryza sativa (ORYSA)
  Post-emergence action against ORYSA in %: 0%

## COC(=O)[C@@H](C)Oc1nn(-c2ccnc(Cl)c2)c(-c2ccc(F)nc2)c1Br [III-22]
[1]
  Pre-emergence action against ABUTH: 100%
[2]; 80 g/ha
  Pre-emergence action against ALOMY: 100%
[2]; 320 g/ha
  Pre-emergence action against ALOMY: 100%
[3]; 80 g/ha
  Pre-emergence action against AMARE in %: 90%
[3]; 320 g/ha
  Pre-emergence action against AMARE in %: 100%
Avena fatua (AVEFA) [4]; 80 g/ha
  Pre-emergence action against AVEFA in %: 80%
Avena fatua (AVEFA) [4]; 320 g/ha
  Pre-emergence action against AVEFA in %: 100%
[5]; dosage 80 g/ha
  Pre-emergence action against ECHCG in %: 100%
[5]; dosage 320 g/ha
  Pre-emergence action against ECHCG in %: 100%
Lolium rigidum (LOLRI) [6]; dosage 80 g/ha
  Pre-emergence action against LOLRI in %: 100%
Lolium rigidum (LOLRI) [6]; dosage 320 g/ha
  Pre-emergence action against LOLRI in %: 100%
[7]
  Pre-emergence action against MATIN in %: 100%
[8]; dosage 320 g/ha
  Pre-emergence action against POLCO in %: 100%
Setaria viridis (SETVI) [9]; dosage 80 g/ha
  Pre-emergence action against SETVI in %: 100%
Setaria viridis (SETVI) [9]; dosage 320 g/ha
  Pre-emergence action against SETVI in %: 100%
[10]
  Pre-emergence action against VERPE in %: 100%
Viola tricolor (VIOTR) [11]; 320 g/ha, Viola tricolor
  Pre-emergence action against VIOTR in %: 100%
Viola tricolor (VIOTR) [11]; dosage 80 g/ha
  Pre-emergence action against VIOTR in %: 90%
[12]; 80 g/ha
  Post-emergence action against ABUTH in %: 90%
[12]; 320 g/ha
  Post-emergence action against ABUTH in %: 90%
[13]; 80 g/ha
  Post-emergence action against ALOMY in %: 100%
[13]; 320 g/ha
  Post-emergence action against ALOMY in %: 100%
[14]; [23]
  Post-emergence action against AMARE in %: 90%
[14]; [24]
  Post-emergence action against AMARE in %: 90%
Avena fatua (AVEFA) [15]; 80 g/ha
  Post-emergence action against AVEFA in %: 100%
Avena fatua (AVEFA) [15]; 320 g/ha
  Post-emergence action against AVEFA in %: 100%
[16]; dosage 80 g/ha
  Post-emergence action against ECHCG in %: 100%
[16]; dosage 320 g/ha
  Post-emergence action against ECHCG in %: 100%
Lolium rigidum (LOLRI) [17]; dosage 320 g/ha
  Post-emergence action against LOLRI in %: 100%
[18]
  Post-emergence action against PHBPU in %: 80%
Setaria viridis (SETVI) [20]; dosage 80 g/ha
  Post-emergence action against SETVI in %: 100%
Setaria viridis (SETVI) [20]; dosage 320 g/ha
  Post-emergence action against SETVI in %: 100%
[21]; 320 g/ha, VERPE
  Post-emergence action against VERPE in %: 90%
[21]; dosage 80 g/ha
  Post-emergence action against VERPE in %: 80%
Viola tricolor (VIOTR) [22]; 80 g/ha
  Post-emergence action against VIOTR in %: 90%
Viola tricolor (VIOTR) [22]; 320 g/ha
  Post-emergence action against VIOTR in %: 90%
Oryza sativa (ORYSA)
  Post-emergence action against ORYSA in %: 0%
